We go through 7 molecules from publication PMC6028563, “Probing Substituents in the 1- and 3-Position: Tetrahydropyrazino-Annelated Water-Soluble Xanthine Derivatives as Multi-Target Drugs With Potent Adenosine Receptor Antagonistic Activity” (Frontiers in Chemistry, 2018).

The nature of series [1]: Thermodynamic solubility measurements. The format is physicochemical. Particulars: thermodynamic from solid. The text has this:
This is expected to facilitate dissolution in the stomach. Depending on the substitution pattern they may also be well soluble at higher pH values (Brunschweiger et al., [2014]). In the present study we measured thermodynamic solubility of only very few compounds exemplarily (14a-e, 14g, 15f,g) and confirmed their high solubility at pH 1 (see Table S1 in Supplementary Material). Most of these compounds were still soluble at pH 7.4. The best soluble derivative was the 3-ethyl-1-methyl-8-m-fluorobenzyl derivative 14g with solubilities of >1.5 g/L (4.2 mM) at pH 1, 50 mg/L (0.14 mM) at pH 4, and 40 mg/L ([…]) at pH 7.4.
Table S1. Solubility of selected compounds at three different pH values (in mg/mL).a
Compound pH 1 pH 4 pH 7.4
adetermined by thermodynamic solubility measurements.

In the next series the target is T1, human A2B AR (Homo sapiens, UniProt P29275).
T1 construct: expressed in transfected cells; host or cells: CHO cells
T1 sequence (P29275 1-332): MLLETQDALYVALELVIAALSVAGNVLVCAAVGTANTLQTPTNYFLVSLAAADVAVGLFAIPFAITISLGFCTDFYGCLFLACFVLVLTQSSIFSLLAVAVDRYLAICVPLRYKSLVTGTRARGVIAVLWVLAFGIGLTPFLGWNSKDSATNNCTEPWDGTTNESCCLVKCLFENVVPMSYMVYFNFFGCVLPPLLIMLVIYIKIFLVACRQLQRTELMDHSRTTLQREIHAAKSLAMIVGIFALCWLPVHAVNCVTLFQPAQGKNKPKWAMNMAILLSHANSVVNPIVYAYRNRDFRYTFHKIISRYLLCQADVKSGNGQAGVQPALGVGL
Kind of series: Radioligand binding assay at human A2B AR vs. [^3H]PSB-603. Particulars: for Ki: CHO cell membranes, n = 2 (n = 3 where marked a), read-out: Ki ± SEM, A2B vs. [^3H]PSB-603; for inhibition at 1 µM: at 1,000 nM; for inhibition at 1 µM / inhibition at 0.1 µM: read-out: % inhibition of radioligand binding at indicated concentration, A2B vs. [^3H]PSB-603; for inhibition at 0.1 µM: at 100 nM. A digest of the protocol:
(§1)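 Rat A1 binding used brain cortex membranes with [^3H]CCPA; rat A2A used striatal membranes with [^3H]MSX-2. Human A2B (and other human subtypes) assayed on membranes of CHO cells recombinantly expressing the receptor, A2B versus [^3H]PSB-603.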

The next series concerns the target T2, human A2A AR (Homo sapiens, UniProt P29274).
T2 construct: expressed in transfected cells; host or cells: CHO cells
The series is described as follows: Radioligand binding assay at human A2A AR vs. [^3H]MSX-2. Particulars: CHO cell membranes, n = 3, read-out: Ki ± SEM, A2A vs. [^3H]MSX-2. A digest of the protocol:
as §1

In a further series the target is T3, recombinant human MAO-A (Homo sapiens, UniProt P21397).
T3 construct: purchased Sigma-Aldrich M7316; host or cells: baculovirus-infected insect cells
T3 sequence (P21397 1-527): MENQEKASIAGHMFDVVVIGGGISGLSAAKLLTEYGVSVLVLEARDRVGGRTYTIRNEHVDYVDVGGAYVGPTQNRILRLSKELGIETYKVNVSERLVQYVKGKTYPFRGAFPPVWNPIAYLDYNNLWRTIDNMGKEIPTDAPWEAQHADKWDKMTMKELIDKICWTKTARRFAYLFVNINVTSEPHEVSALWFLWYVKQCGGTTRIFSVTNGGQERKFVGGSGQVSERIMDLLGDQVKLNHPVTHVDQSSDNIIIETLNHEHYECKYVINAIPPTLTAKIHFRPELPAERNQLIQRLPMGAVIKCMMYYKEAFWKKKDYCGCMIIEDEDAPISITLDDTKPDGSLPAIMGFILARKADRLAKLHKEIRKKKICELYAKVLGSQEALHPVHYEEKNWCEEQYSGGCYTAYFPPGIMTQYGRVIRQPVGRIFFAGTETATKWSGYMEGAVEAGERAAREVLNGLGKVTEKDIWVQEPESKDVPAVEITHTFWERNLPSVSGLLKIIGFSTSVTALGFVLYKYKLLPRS
Kind of series: Monoamine oxidase assay (Amplex Red), MAO-A. The format is biochemical. Particulars: for inhibition at 10 µM: at 10,000 nM, read-out: % inhibition at indicated concentration, Human MAO-A; for IC50: n = 3, read-out: IC50 ± SEM, Human MAO-A. A digest of the protocol: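 Recombinant human MAO-A and MAO-B, expressed in baculovirus-infected insect cells, were assayed by Amplex Red fluorometric detection. Rat MAO-B inhibition used mitochondria-enriched fractions from male Sprague Dawley rat liver.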

The mark [2] stands for this setting: aqueous buffer, pH 4, thermodynamic solubility, read-out: Solubility, pH 4.
Setting [3] is: aqueous buffer, pH 7.4, thermodynamic solubility, read-out: Solubility, pH 7.4.
The mark [4] stands for this setting: simulated gastric fluid, pH 1, thermodynamic solubility, read-out: Solubility, pH 1.

Like-named read-outs stand apart in the source and are kept apart here.

Usually solubility stands for how much of the substance goes into solution per volume. For orientation: Ki means the equilibrium dissociation constant of an inhibitor or competing ligand from its target. Usually IC50 stands for the midpoint of a concentration-inhibition curve.

T2 sequence (P29274 whole entry): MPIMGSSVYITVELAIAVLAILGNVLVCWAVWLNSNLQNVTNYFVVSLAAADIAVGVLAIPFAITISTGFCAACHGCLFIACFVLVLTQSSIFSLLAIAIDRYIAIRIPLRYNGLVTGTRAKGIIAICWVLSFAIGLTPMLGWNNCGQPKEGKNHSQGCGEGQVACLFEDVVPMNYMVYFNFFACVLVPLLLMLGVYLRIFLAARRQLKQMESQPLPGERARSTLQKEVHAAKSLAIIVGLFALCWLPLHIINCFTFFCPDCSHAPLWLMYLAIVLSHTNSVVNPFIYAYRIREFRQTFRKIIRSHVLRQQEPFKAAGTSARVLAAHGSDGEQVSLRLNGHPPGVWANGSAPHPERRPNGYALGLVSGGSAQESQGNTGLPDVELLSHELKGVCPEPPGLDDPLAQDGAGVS

Regarding `CCn1c(=O)c2c(nc3n2CCN(Cc2ccccc2Br)C3)n(C)c1=O` [Compound 14a, 8-(2-bromobenzyl)-3-ethyl-1-methyl-6,7,8,9-tetrahydropyrazino[2,1-f]purine-2,4(1H,3H)-dione], the values for the solubility in series [1] (setting [2]), in series [1] (setting [3]) and in series [1] (setting [4]) were 0.9 µg/mL, 0.8 µg/mL and 200 µg/mL, respectively. For the same molecule, the inhibition constant Ki on human A2B AR is > 1000 nM; on human A2A AR it was 497 ± 62 nM. At human A2B AR, the inhibition at 1 µM stood at 18%.

Take `CCn1c(=O)c2c(nc3n2CCN(Cc2cccc(Br)c2)C3)n(C)c1=O` [Compound 14b, 8-(3-bromobenzyl)-3-ethyl-1-methyl-6,7,8,9-tetrahydropyrazino[2,1-f]purine-2,4(1H,3H)-dione]: the solubility in series [1] (setting [2]) is 1 µg/mL; in series [1] (setting [3]) it was 0.9 µg/mL; in series [1] (setting [4]), 100 µg/mL. In addition, the Ki on human A2B AR is > 1000 nM. Also, at human A2B AR, the inhibition at 1 µM stood at 9%.

Regarding `CCn1c(=O)c2c(nc3n2CCN(Cc2ccc(Br)cc2)C3)n(C)c1=O` [Compound 14c, 8-(4-bromobenzyl)-3-ethyl-1-methyl-6,7,8,9-tetrahydropyrazino[2,1-f]purine-2,4(1H,3H)-dione], the results for the solubility in series [1] (setting [2]), in series [1] (setting [3]) and in series [1] (setting [4]) were 6 µg/mL, 3 µg/mL and 1300 µg/mL, respectively. In addition, the inhibitory constant (Ki) on human A2B AR is > 1000 nM. The inhibition at 1 µM at human A2B AR is 1%. Also, the inhibition at 10 µM at recombinant human MAO-A was 2%. Moreover, the IC50 on recombinant human MAO-A is > 10000 nM.

Regarding `CCn1c(=O)c2c(nc3n2CCN(Cc2ccccc2C(F)(F)F)C3)n(C)c1=O` [Compound 14d, 3-ethyl-1-methyl-8-(2-(trifluoromethyl)benzyl)-6,7,8,9-tetrahydropyrazino[2,1-f]purine-2,4(1H,3H)-dione], the solubility in series [1] (setting [2]) turned out to be 1 µg/mL. The solubility in series [1] (setting [3]) was < 0.5 µg/mL. Further, the solubility in series [1] (setting [4]) is 200 µg/mL. For the same molecule, on human A2B AR, the Ki is > 1000 nM and the inhibition at 1 µM stood at 2%. Also, on recombinant human MAO-A, the inhibition at 10 µM is 5% and the IC50 is > 10000 nM.

Turning to `CCn1c(=O)c2c(nc3n2CCN(Cc2cccc(C(F)(F)F)c2)C3)n(C)c1=O` [Compound 14e, 3-ethyl-1-methyl-8-(3-(trifluoromethyl)benzyl)-6,7,8,9-tetrahydropyrazino[2,1-f]purine-2,4(1H,3H)-dione], the solubility in series [1] (setting [2]) was 2 µg/mL; in series [1] (setting [3]) it was 2 µg/mL; in series [1] (setting [4]), 400 µg/mL. In addition, the inhibitory constant (Ki) is > 100 nM at human A2B AR and 1780 nM at human A2A AR. Moreover, the inhibition at 0.1 µM at human A2B AR was 2%. In addition, the inhibition at 10 µM at recombinant human MAO-A came to 12%. Besides, the IC50 at recombinant human MAO-A is > 10000 nM.

Regarding `CCn1c(=O)c2c(nc3n2CCN(Cc2cccc(F)c2)C3)n(C)c1=O` [Compound 14g, 3-ethyl-8-(3-fluorobenzyl)-1-methyl-6,7,8,9-tetrahydropyrazino[2,1-f]purine-2,4(1H,3H)-dione], the solubility is 140 µM in series [1] (aqueous solution, aqueous buffer, pH 4, molar value in brackets, read-out: solubility at pH 4); 50 µg/mL in series [1] (aqueous solution, aqueous buffer, pH 4, read-out: solubility at pH 4); 84 µM in series [1] (aqueous solution, aqueous buffer, pH 7.4, molar value in brackets, read-out: solubility at pH 7.4); 40 µg/mL in series [1] (aqueous solution, aqueous buffer, pH 7.4, read-out: solubility at pH 7.4); > 4200 µM in series [1] (aqueous solution, simulated gastric fluid, pH 1, molar value in brackets, read-out: solubility at pH 1); > 1500 µg/mL in series [1] (aqueous solution, simulated gastric fluid, pH 1, read-out: solubility at pH 1). The Ki at human A2B AR was > 100 nM. In addition, the inhibition at 0.1 µM on human A2B AR stood at 15%.

Take `CCn1c(=O)c2c(nc3n2CCN(Cc2cccc(C(F)(F)F)c2)C3)n(CC)c1=O` [Compound 15g, 1,3-diethyl-8-(3-(trifluoromethyl)benzyl)-6,7,8,9-tetrahydropyrazino[2,1-f]purine-2,4(1H,3H)-dione]: the solubility in series [1] (setting [2]) was 2 µg/mL; in series [1] (setting [3]) it was 2 µg/mL; in series [1] (setting [4]), 600 µg/mL. Further, the Ki on human A2B AR is > 1000 nM; on human A2A AR, 277 ± 59 nM. Moreover, the inhibition at 1 µM on human A2B AR was determined as 27%.
